Reference: PubChem BioAssay AID1963850 (Molecular Pharmacology Branch, DTP, NCI, 2024)

Tested on: 192522-019-R-J2-PDC complex tumor spheroid viability
Assay: Anticancer human tumor 192522-019-R-J2-PDC patient-derived colon adenocarcinoma cell line growth inhibition [POLQ]
Details: for IC50: curve of first compound; for viability, T/C: stronger effect = lower value
Protocol: Multicellular complex tumor spheroid response to Polymerase (POL) inhibitors (novobiocin, ART-558, RP6685) in combination with a variety of drugs and investigational agents in selected tumor cell lines
The POL inhibitors (novobiocin, ART-558, and RP6685) were evaluated both individually and in combination with standard of care and investigational anticancer small molecules within a complex spheroid model of solid tumors. . Complex spheroids include a stromal component modeled by human endothelial cells (HUVEC) and fibroblasts modeled by human mesenchymal stem cells (MSCs). The concentration ranges selected for each drug and investigational agent were based upon clinically achievable concentrations if the clinical Cmax of the agent was known.
Compounds. The drugs and investigational agents: novobiocin (NSC847541), ART-558 (NSC835418), RP-6685 (NSC848927), peposertib (NSC802822), ceralasertib (NSC780249), elimusertib (NSC800525), camonsertib (NSC841442), AZD-1390 (NSC803789), olaparib (NSC753686), talazoparib (NSC767125), rucaparib (NSC756644), sotorasib (NSC818433), MRTX-1133 (NSC836407), SN-38 (NSC673596), topotecan (NSC609699), epotoside (NSC141540), doxorubicin (NSC123127), gemcitabine (NSC613327), 5-fluorouracil (NSC19893), paclitaxel (NSC125973), vemurafenib (NSC761431), MSA-2 (NSC828583), SN-011 (NSC837082), adavosertib (NSC754352), prexasertib (NSC758257), carboplatin (NSC241240) and oxaliplatin (NSC266046), were obtained from the National Cancer Institute (NCI) Developmental Therapeutics Program Chemical Repository (21). The FDA-approved anticancer drug set is available from the Developmental Therapeutics Program at https://dtp.cancer.gov/organization/dscb/obtaining/. […] The stock solutions were prepared in dimethyl sulfoxide (DMSO, Sigma-Aldrich, St. Louis, MO, cat. D2650), except for the platinum compounds which were prepared in saline (Quality Biological, Gaithersburg, MD, cat. 114-055-101), at 800-fold the tested concentration and stored at -70 degrees C prior to their use. All drugs and investigational agents were tested over a range starting from a high concentration at or near the clinical Cmax and decreasing in half-log increments. If the clinical Cmax for an agent had not been determined, the highest concentration tested was 10 microM, except for SN-38, which was tested at a high concentration of 1 microM.
Cell Culture. All cells were maintained in an incubator at 37 degrees C and 5% CO2 with 95% humidity. The PDC lines were cultured according to standard operating procedures established by the NCI PDMR (https://pdmr.cancer.gov). Table 3 of the manuscript, lists the cell lines along with the number of the three cell types plated to form the mct-spheroids and media for tumor cell growth. After thawing, all PDC lines, except 997537-175-T-J1-PDC and 415267-285-R-J2-PDC, were cultured in Matrigel-coated flasks prepared with a working solution of 1X Ham's F-12 nutrient mix, without supplementation (Thermo Fisher Scientific, cat. 11765054), 100 U/mL penicillin-streptomycin (Thermo Fisher Scientific, cat. 15140122), and 2.5% Matrigel (Corning Inc., Corning, NY, cat. 354248) for the first three passages. The two PDC lines 997537-175-T-J1-PDC and 415267-285-R-J2-PDC were cultured on uncoated flasks. The 857933-349-R-J2-PDC line was cultured in 6C/Colon 1B media containing advanced DMEM/F-12 (Thermo Fisher Scientific, cat. 12634028), 10 mM HEPES (Thermo Fisher Scientific, cat. 15630080), 1X GlutaMAX supplement (Thermo Fisher Scientific, cat. 35050061), 0.1 mg/mL primocin (InvivoGen, San Diego, CA, cat. ant-pm-2), 10% defined fetal bovine serum, heat inactivated (HyClone Laboratories Inc., Logan, UT, cat. SH30070.03HI), 50% L-WRN conditioned media (ATCC, cat. CRL-3276), 1.25 mM N-Acetyl-L-cysteine (Sigma-Aldrich, cat. A9165), 10 mM nicotinamide (Sigma-Aldrich, cat. N0636), 1X B-27 supplement (Thermo Fisher Scientific, cat. 17504044), 1X N-2 supplement (Thermo Fisher Scientific, cat. […]

[1] = second compound 0.0316 µM, first compound 0.0316 µM
[2] = second compound 0.0316 µM, first compound 0.1 µM
[3] = second compound 0.0316 µM, first compound 0.316 µM
[4] = second compound 0.0316 µM, first compound 1 µM
[5] = second compound 0.0316 µM, first compound 3.16 µM
[6] = second compound 0.0316 µM, first compound 10 µM
[7] = second compound 0.1 µM, first compound 0.0316 µM
[8] = second compound 0.1 µM, first compound 0.1 µM
[9] = second compound 0.1 µM, first compound 0.316 µM
[10] = second compound 0.1 µM, first compound 1 µM
[11] = second compound 0.1 µM, first compound 3.16 µM
[12] = second compound 0.1 µM, first compound 10 µM
[13] = second compound 0.316 µM, first compound 0.0316 µM
[14] = second compound 0.316 µM, first compound 0.1 µM
[15] = second compound 0.316 µM, first compound 0.316 µM
[16] = second compound 0.316 µM, first compound 1 µM
[17] = second compound 0.316 µM, first compound 3.16 µM
[18] = second compound 0.316 µM, first compound 10 µM
[19] = second compound 1 µM, first compound 0.0316 µM
[20] = second compound 1 µM, first compound 0.1 µM
[21] = second compound 1 µM, first compound 0.316 µM
[22] = second compound 1 µM, first compound 1 µM
[23] = second compound 1 µM, first compound 3.16 µM
[24] = second compound 1 µM, first compound 10 µM
[25] = second compound 3.16 µM, first compound 0.0316 µM
[26] = second compound 3.16 µM, first compound 0.1 µM
[27] = second compound 3.16 µM, first compound 0.316 µM
[28] = second compound 3.16 µM, first compound 1 µM
[29] = second compound 3.16 µM, first compound 3.16 µM
[30] = second compound 3.16 µM, first compound 10 µM
[31] = second compound 10 µM, first compound 0.0316 µM
[32] = second compound 10 µM, first compound 0.1 µM
[33] = second compound 10 µM, first compound 0.316 µM
[34] = second compound 10 µM, first compound 1 µM
[35] = second compound 10 µM, first compound 3.16 µM
[36] = second compound 10 µM, first compound 10 µM
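Also: spheroids exposed to drugs for seven days before reading.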
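For viability, T/C in this document: 100% = DMSO vehicle control viability in luminescence.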

Compound: C=CC(=O)N1CCN(c2nc(=O)n(-c3c(C)ccnc3C(C)C)c3nc(-c4c(O)cccc4F)c(F)cc23)C(C)C1 (centres undefined) + Cc1cccc(N(C)C(=O)C2C(O)CCN2c2nc(C)cc(C(F)(F)F)c2C#N)c1
- IC50 (second compound 0.0316 µM): > 10 µM
- IC50 (second compound 0.1 µM): > 10 µM
- IC50 (second compound 0.316 µM): > 10 µM
- IC50 (second compound 1 µM): > 10 µM
- IC50 (second compound 3.16 µM): > 10 µM
- IC50 (second compound 10 µM): > 10 µM
- viability, T/C [1]: 114%
- viability, T/C [2]: 85%
- viability, T/C [3]: 101%
- viability, T/C [4]: 93.8%
- viability, T/C [5]: 109%
- viability, T/C [6]: 97.9%
- viability, T/C [7]: 106%
- viability, T/C [8]: 91.4%
- viability, T/C [9]: 98.8%
- viability, T/C [10]: 103%
- viability, T/C [11]: 100%
- viability, T/C [12]: 110%
- viability, T/C [13]: 95.2%
- viability, T/C [14]: 96.9%
- viability, T/C [15]: 100%
- viability, T/C [16]: 105%
- viability, T/C [17]: 101%
- viability, T/C [18]: 103%
- viability, T/C [19]: 102%
- viability, T/C [20]: 105%
- viability, T/C [21]: 109%
- viability, T/C [22]: 106%
- viability, T/C [23]: 102%
- viability, T/C [24]: 110%
- viability, T/C [25]: 102%
- viability, T/C [26]: 96.5%
- viability, T/C [27]: 108%
- viability, T/C [28]: 98%
- viability, T/C [29]: 106%
- viability, T/C [30]: 113%
- viability, T/C [31]: 107%
- viability, T/C [32]: 101%
- viability, T/C [33]: 107%
- viability, T/C [34]: 113%
- viability, T/C [35]: 114%
- viability, T/C [36]: 107%

Compound: COc1ccc([C@@H](O)c2cc(-c3ncnc4cc(N5CCOCC5)ccc34)c(F)cc2Cl)nn1 + Cc1cccc(N(C)C(=O)C2C(O)CCN2c2nc(C)cc(C(F)(F)F)c2C#N)c1
- IC50 (second compound 0.0316 µM): > 10 µM
- IC50 (second compound 0.1 µM): > 10 µM
- IC50 (second compound 0.316 µM): > 10 µM
- IC50 (second compound 1 µM): > 10 µM
- IC50 (second compound 3.16 µM): > 10 µM
- IC50 (second compound 10 µM): > 10 µM
- viability, T/C [1]: 102%
- viability, T/C [2]: 86%
- viability, T/C [3]: 103%
- viability, T/C [4]: 83.1%
- viability, T/C [5]: 85.9%
- viability, T/C [6]: 51.8%
- viability, T/C [7]: 100%
- viability, T/C [8]: 87.5%
- viability, T/C [9]: 90.1%
- viability, T/C [10]: 90.8%
- viability, T/C [11]: 78.9%
- viability, T/C [12]: 61.8%
- viability, T/C [13]: 104%
- viability, T/C [14]: 95.7%
- viability, T/C [15]: 102%
- viability, T/C [16]: 91.3%
- viability, T/C [17]: 84.9%
- viability, T/C [18]: 65%
- viability, T/C [19]: 98.9%
- viability, T/C [20]: 94.7%
- viability, T/C [21]: 93.7%
- viability, T/C [22]: 97.4%
- viability, T/C [23]: 89.9%
- viability, T/C [24]: 62.4%
- viability, T/C [25]: 101%
- viability, T/C [26]: 100%
- viability, T/C [27]: 105%
- viability, T/C [28]: 94.8%
- viability, T/C [29]: 95.1%
- viability, T/C [30]: 64.6%
- viability, T/C [31]: 106%
- viability, T/C [32]: 96.1%
- viability, T/C [33]: 104%
- viability, T/C [34]: 99.6%
- viability, T/C [35]: 89%
- viability, T/C [36]: 52.6%
